Laboratory results published in US20210380595A1 (ARAXES PHARMA LLC, priority 2018, published 2021).

molecular target: T1, KRAS G12C 1-169, his-tagged protein, GDP-loaded (Homo sapiens, UniProt P01116, G12C); test: Biochemical assay: covalent modification of KRAS G12C measured by mass spectrometry (RapidFire/TOF or Q-Exactive); format: binding; settings: tested at 32 μM; note: time not given here
T1 construct: KRAS G12C 1-169, his-tagged protein, GDP-loaded
Procedure, shortened: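 GDP-loaded KRAS G12C 1-169 (his-tagged, 2 μM or 0.5 μM in 20 mM Hepes, 150 mM NaCl, 1 mM MgCl2) reacted with compound at 32 μM or 8 μM final, then quenched with formic acid. Intact-protein LC-MS (RapidFire/TOF or Q-Exactive) with charge-envelope deconvolution; % modification from modified vs unmodified peak intensities.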

**Q.** C=CC(=O)N1CC2(CCN(c3ccc(F)c(-c4c(C)ccc5[nH]ncc45)c3)C2)C1 [Compound I-99] was tested. Which Bind % did it give?
**A.** Its Bind % is “++ (++ indicates binding activity from 50 to 75%)”.

**Q.** With C=CC(=O)N1CC2(CCN(c3ccc(OC4CCN(C)CC4)c(-c4c(C)ccc5[nH]ncc45)c3C#N)CC2)C1 [Compound I-100, 6-(2-acryloyl-2,7-diazaspiro[3.5]nonan-7-yl)-2-(5-methyl-1H-indazol-4-yl)-3-((1-methylpiperidin-4-yl)oxy)benzo-nitrile] as the compound, how does the Bind % read?
**A.** The Bind % was “+ (+ indicates binding activity greater than 0% and up to 50%)”.

**Q.** With C=CC(=O)N1CC2(CCN(c3ccc(C#N)c(-c4c(C)ccc5[nH]ncc45)c3)C2)C1 [Compound I-101, 4-(2-acryloyl-2,6-diazaspiro[3.4]octan-6-yl)-2-(5-methyl-1H-indazol-4-yl)benzonitrile] as the compound, how does the Bind % read?
**A.** Its Bind % is “+ (+ indicates binding activity greater than 0% and up to 50%)”.

**Q.** C=CC(=O)N1CC2(CCN(c3ccc(F)c(-c4c(C)ccc5[nH]ncc45)c3)CC2)C1 [Compound I-102, 1-(7-(4-fluoro-3-(5-methyl-1H-indazol-4-yl)phenyl)-2,7-diazaspiro[3.5]nonan-2-yl)prop-2-en-1-one] was tested. Which Bind % did it give?
**A.** Its Bind % is “+ (+ indicates binding activity greater than 0% and up to 50%)”.

**Q.** With C=CC(=O)N1CC2(CCN(c3cc(OCCCN(C)C)c(OC)c(-c4c(C)ccc5[nH]ncc45)c3)CC2)C1 [Compound I-103, 1-(7-(3-(3-(dimethylamino)propoxy)-4-methoxy-5-(5-methyl-1H-indazol-4-yl)phenyl)-2,7-diazaspiro[3.5]nonan-2-yl)prop-2-en-1-one] as the compound, how does the Bind % read?
**A.** Its Bind % is “++ (++ indicates binding activity from 50 to 75%)”.

**Q.** How did the Bind % turn out when C=CC(=O)N1CC2(CCN(c3cc(OCCCN(C)C)c(OC)c(-c4c(C)ccc5cnn(C)c45)c3C#N)CC2)C1 [Compound I-104] was run?
**A.** The Bind % was “+ (+ indicates binding activity greater than 0% and up to 50%)”.

**Q.** With C=CC(=O)N1CC2(CCN(c3ccc(C#N)c(-c4c(C)ccc5[nH]ncc45)c3)CC2)C1 [Compound I-105, 4-(2-acryloyl-2,7-diazaspiro[3.5]nonan-7-yl)-2-(5-methyl-1H-indazol-4-yl)benzonitrile] as the compound, how does the Bind % read?
**A.** The Bind % was “+ (+ indicates binding activity greater than 0% and up to 50%)”.

**Q.** For C=CC(=O)N1CC2(CCN(c3ccc(F)c(-c4c(C)ccc5[nH]ncc45)c3C#N)CC2)C1 [Compound I-106, 6-(2-acryloyl-2,7-diazaspiro[3.5]nonan-7-yl)-3-fluoro-2-(5-methyl-1H-indazol-4-yl)benzonitrile], which Bind % is on record?
**A.** Its Bind % is “+ (+ indicates binding activity greater than 0% and up to 50%)”.

**Q.** Which Bind % does the source give for C=CC(=O)N1CC2(CCN(c3cc(OCc4ccccn4)cc(-c4c(C)ccc5[nH]ncc45)c3)CC2)C1 [Compound I-107, 1-(7-(3-(5-methyl-1H-indazol-4-yl)-5-(pyridin-2-ylmethoxy)phenyl)-2,7-diazaspiro[3.5]nonan-2-yl)prop-2-en-1-one] here?
**A.** Its Bind % is “+ (+ indicates binding activity greater than 0% and up to 50%)”.

**Q.** For C=CC(=O)N1CC2(CCN(c3cc(N4CCOCC4)cc(-c4c(C)ccc5[nH]ncc45)c3C#N)CC2)C1 [Compound I-108, 2-(2-acryloyl-2,7-diazaspiro[3.5]nonan-7-yl)-6-(5-methyl-1H-indazol-4-yl)-4-morpholino-benzonitrile], which Bind % is on record?
**A.** The Bind % was “+ (+ indicates binding activity greater than 0% and up to 50%)”.

**Q.** C=CC(=O)N1CC2(CCN(c3ccc(OC4CCN(C)CC4)c(-c4c(C)ccc5cnn(C)c45)c3C#N)CC2)C1 [Compound I-109, 6-(2-acryloyl-2,7-diazaspiro[3.5]nonan-7-yl)-2-(1,6-dimethyl-1H-indazol-7-yl)-3-((1-methylpiperidin-4-yl)oxy)benzo-nitrile] was tested. Which Bind % did it give?
**A.** The Bind % was “+ (+ indicates binding activity greater than 0% and up to 50%)”.

**Q.** How did the Bind % turn out when C=CC(=O)N1CC2(CCN(c3ccc(F)c(-c4c(C)ccc5[nH]ncc45)c3C#N)CC2)C1 [Compound I-111, 6-(2-acryloyl-2,7-diazaspiro[3.5]nonan-7-yl)-3-fluoro-2-(5-methyl-1H-indazol-4-yl)benzonitrile] was run?
**A.** The Bind % was “+ (+ indicates binding activity greater than 0% and up to 50%)”.

**Q.** C=CC(=O)N1CC2(CCN(c3ccc(C(F)(F)F)c(-c4c(C)ccc5[nH]ncc45)c3C#N)CC2)C1 [Compound I-112, 6-(2-acryloyl-2,7-diazaspiro[3.5]nonan-7-yl)-2-(5-methyl-1H-indazol-4-yl)-3-(trifluoromethyl) benzonitrile] was tested. Which Bind % did it give?
**A.** Its Bind % is “+ (+ indicates binding activity greater than 0% and up to 50%)”.

**Q.** For C=CC(=O)N1CC2(CCN(c3cc(N4CC(N(C)C)C4)c(F)c(-c4c(C)ccc5[nH]ncc45)c3C#N)CC2)C1 [Compound I-114, 6-(2-acryloyl-2,7-diazaspiro[3.5]nonan-7-yl)-4-(3-(dimethylamino)azetidin-1-yl)-3-fluoro-2-(5-methyl-1H-indazol-4-yl)benzonitrile], which Bind % is on record?
**A.** The Bind % was “+ (+ indicates binding activity greater than 0% and up to 50%)”.

**Q.** How did the Bind % turn out when C=CC(=O)N1CC2(CCN(c3ccc(Nc4ccccc4)c(-c4c(C)ccc5[nH]ncc45)c3C#N)CC2)C1 [Compound I-115, 6-(2-acryloyl-2,7-diazaspiro[3.5]nonan-7-yl)-2-(5-methyl-1H-indazol-4-yl)-3-(phenylamino) benzonitrile] was run?
**A.** Its Bind % is “+ (+ indicates binding activity greater than 0% and up to 50%)”.

**Q.** C=CC(=O)N1CC2(CCN(c3cccc(-c4c(C)ccc5[nH]ncc45)c3C#N)CC2)C1 [Compound I-116, 2-(2-acryloyl-2,7-diazaspiro[3.5]nonan-7-yl)-6-(5-methyl-1H-indazol-4-yl)benzonitrile] was tested. Which Bind % did it give?
**A.** Its Bind % is “+ (+ indicates binding activity greater than 0% and up to 50%)”.

**Q.** Which Bind % does the source give for C=CC(=O)N1CC2(CCN(c3cc(NCc4ccccn4)c(F)c(-c4c(C)ccc5[nH]ncc45)c3C#N)CC2)C1 [Compound I-117, 6-(2-acryloyl-2,7-diazaspiro[3.5]nonan-7-yl)-3-fluoro-2-(5-methyl-1H-indazol-4-yl)-4-((pyridin-2-ylmethyl)amino) benzonitrile] here?
**A.** The Bind % was “++ (++ indicates binding activity from 50 to 75%)”.

**Q.** For C=CC(=O)N1CC2(CCN(c3ccc(F)c(-c4c(C)ccc5[nH]ncc45)c3Cl)CC2)C1 [Compound I-118, 1-(7-(2-chloro-4-fluoro-3-(5-methyl-1H-indazol-4-yl)phenyl)-2,7-diazaspiro[3.5]nonan-2-yl)prop-2-en-1-one], which Bind % is on record?
**A.** Its Bind % is “+ (+ indicates binding activity greater than 0% and up to 50%)”.

**Q.** With C=CC(=O)N1CC2(CCN(c3cc(OCCCN(C)C)c(F)c(-c4c(C)ccc5cnn(C)c45)c3C#N)CC2)C1 [Compound I-119, 6-(2-acryloyl-2,7-diazaspiro[3.5]nonan-7-yl)-2-(1,6-dimethyl-1H-indazol-7-yl)-4-(3-(dimethylamino)propoxy)-3-fluorobenzo-nitrile] as the compound, how does the Bind % read?
**A.** The Bind % was “+ (+ indicates binding activity greater than 0% and up to 50%)”.

**Q.** With C=CC(=O)N1CC2(CCN(c3cc(NCCN4CCCC4)c(F)c(-c4c(C)ccc5[nH]ncc45)c3C#N)CC2)C1 [Compound I-120, 6-(2-acryloyl-2,7-diazaspiro[3.5]nonan-7-yl)-3-fluoro-2-(5-methyl-1H-indazol-4-yl)-4-((2-(pyrrolidin-1-yl)ethyl)amino) benzonitrile] as the compound, how does the Bind % read?
**A.** The Bind % was “+ (+ indicates binding activity greater than 0% and up to 50%)”.

**Q.** C=CC(=O)N1CC2(CCN(c3cc(N4CCCC4)c(F)c(-c4c(C)ccc5[nH]ncc45)c3C#N)CC2)C1 [Compound I-121, 6-(2-acryloyl-2,7-diazaspiro[3.5]nonan-7-yl)-3-fluoro-2-(5-methyl-1H-indazol-4-yl)-4-(pyrrolidin-1-yl)benzonitrile] was tested. Which Bind % did it give?
**A.** Its Bind % is “+ (+ indicates binding activity greater than 0% and up to 50%)”.

**Q.** With C=CC(=O)N1CC2(CCN(c3cc(OCc4ccccn4)c(Cl)c(-c4c(C)ccc5[nH]ncc45)c3C#N)CC2)C1 [Compound I-122, 6-(2-acryloyl-2,7-diazaspiro[3.5]nonan-7-yl)-3-chloro-2-(5-methyl-1H-indazol-4-yl)-4-(pyridin-2-ylmethoxy) benzonitrile] as the compound, how does the Bind % read?
**A.** The Bind % was “++ (++ indicates binding activity from 50 to 75%)”.

**Q.** With C=CC(=O)N1CC2(CCN(c3cc(N4CC(N5CCOCC5)C4)c(F)c(-c4c(C)ccc5[nH]ncc45)c3C#N)CC2)C1 [Compound I-123, 6-(2-acryloyl-2,7-diazaspiro[3.5]nonan-7-yl)-3-fluoro-2-(5-methyl-1H-indazol-4-yl)-4-(3-morpholino-azetidin-1-yl)benzonitrile] as the compound, how does the Bind % read?
**A.** Its Bind % is “+ (+ indicates binding activity greater than 0% and up to 50%)”.

**Q.** With C=CC(=O)N1CC2(CCN(c3cc(N4CCOCC4)c(Cl)c(-c4c(C)ccc5[nH]ncc45)c3C#N)CC2)C1 [Compound I-124, 6-(2-acryloyl-2,7-diazaspiro[3.5]nonan-7-yl)-3-chloro-2-(5-methyl-1H-indazol-4-yl)-4-morpholino-benzonitrile] as the compound, how does the Bind % read?
**A.** Its Bind % is “+ (+ indicates binding activity greater than 0% and up to 50%)”.

same assay, conditions: tested at a concentration of 8 μM

**Q.** Which Bind % does the source give for C=CC(=O)N1CC2(CCN(c3ccc(Cl)c(-c4c(C)ccc5[nH]ncc45)c3C#N)C2)C1 [Compound I-98, 6-(2-acryloyl-2,6-diazaspiro[3.4]octan-6-yl)-3-chloro-2-(5-methyl-1H-indazol-4-yl)benzonitrile] here?
**A.** Its Bind % is “++ (++ indicates binding activity from 50 to 75%)”.

**Q.** How did the Bind % turn out when C=CC(=O)N1CC2(C1)CN(c1ccc(F)c(-c3c(C)ccc4[nH]ncc34)c1C#N)C2 [Compound I-110, 6-(6-acryloyl-2,6-diazaspiro[3.3]heptan-2-yl)-3-fluoro-2-(5-methyl-1H-indazol-4-yl)benzonitrile] was run?
**A.** The Bind % was “+ (+ indicates binding activity greater than 0% and up to 50%)”.

**Q.** Which Bind % does the source give for C=CC(=O)N1CC2(CCN(c3cc(OCCCN(C)C)c(F)c(-c4c(C)ccc5[nH]ncc45)c3C#N)CC2)C1 [Compound I-113, 6-(2-acryloyl-2,7-diazaspiro[3.5]nonan-7-yl)-4-(3-(dimethylamino)propoxy)-3-fluoro-2-(5-methyl-1H-indazol-4-yl)benzonitrile] here?
**A.** Its Bind % is “+ (+ indicates binding activity greater than 0% and up to 50%)”.
